Test [1] has as its system Puccinia recondita (f. sp. tritici Races PKB and PLD). The test can be described thus: whole plant or invertebrate. Type of test: in vivo.
For test [2], the system named is Pseudoperonospora cubensis. Kind of test: whole plant or invertebrate. The test is classed as in vivo.
For test [3], the system named is Puccinia graminis (f. sp. tritici Race 15B-2). Kind of test: whole plant or invertebrate. Type of test: in vivo. The following applies: Puccinia graminis, 336 h, read-out: % Control WSR.
Test [4] has as its system Erysiphe graminis (f. sp. tritici). Kind of test: whole plant or invertebrate. Type of test: in vivo. The following applies: for pest or weed control at 100 ppm / pest or weed control at 200 ppm: Blumeria graminis, read-out: % Control WPM.
Test [5] has as its system Pseudomonas fluorescens. The test can be described thus: Alternate Minimum Inhibitory Concentrations Test (Table 4), Ps.fl. The following applies: Table 4 alternate test, 250 ppm to 0.8 ppm in TSB, 72 hours, 30° C.; for MIC: Pseudomonas fluorescens, read-out: MIC Ps.fl. The test is classed as cell-based. The procedure, abridged:
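Broth microdilution MIC in TSB: compound (from acetone stock) serially diluted 1:1 from 250 ppm to 0.8 ppm, inoculated with diluted 24 h culture. After 3 days at 30 °C, the lowest concentration with no growth was recorded as MIC.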

Test [6] deals with Piricularia oryzae. Kind of test: whole plant or invertebrate. Type of test: in vivo. The settings on record: for pest or weed control at 200 ppm: read-out: % Control RB, application rate 200 ppm.
The test system of test [7] is Phytophthora infestans. Kind of test: whole plant or invertebrate. The following applies: for pest or weed control at 100 ppm / pest or weed control at 200 ppm: Phytophthora infestans, in Solanum lycopersicum, 96 h. The test is classed as in vivo.
Test [8] relates to Pellicularia filamentosa (f. sp. sasiki). Kind of test: whole plant or invertebrate. Type of test: in vivo. The settings on record: for pest or weed control at 100 ppm: 120 h, read-out: % Control RSB.
Setting [9] is: Puccinia recondita, 240 h, read-out: % Control WLR.
Setting [10] is: Pseudoperonospora cubensis, in Cucumis sativus, 168 h, read-out: % Control CDM.
The mark [11] stands for this setting: Pyricularia oryzae, read-out: % Control RB, application rate 100 ppm.
Where [12] appears, read: Pyricularia oryzae, read-out: % Control RB.
Setting [13] is: read-out: % Control TLB, application rate 100 ppm.

Like-named read-outs stand apart in the source and are kept apart here.

We go through 15 molecules from patent US5300672A (priority 1992, dated 1994).

Consider `CCCCCCCCNC(=O)/C=C\SC(=O)c1ccc(F)cc1` [Compound 3, N-octyl-cis-3-[(4-fluorobenzoyl)thio]acrylamide], for which the pest or weed control at 100 ppm in test [1] (setting [9]) was 0%; in test [4] it was 0%; in test [6] (setting [11]) it was 80%; in test [7] (read-out: % Control TLB), 90%; in test [8], 0%. The pest or weed control at 50 ppm in test [2] (setting [10]) was 85%. The pest or weed control at 200 ppm in test [3] was 75%. In addition, the MIC in test [5] is over 250 µg/mL.
On to `CCCCCCCCNC(=O)/C=C\SC(=O)C1CCCCC1` [Compound 4, N-octyl-cis-3-(cyclohexanecarbonylthio)acrylamide], for which the pest or weed control at 100 ppm in test [1] (setting [9]) turned out to be 0%; in test [4] it was 0%; in test [6] (setting [11]), 80%; in test [7] (read-out: % Control TLB) it was 90%; in test [8], 0%. For the same molecule, in test [2] (setting [10]), the pest or weed control at 50 ppm was 99%. In test [3], the pest or weed control at 200 ppm is 50%. Moreover, in test [5], the MIC was over 250 µg/mL.
For `CCCCCCCCNC(=O)/C=C\SC(=O)c1ccccc1Br` [Compound 5, N-octyl-cis-3-[(2-bromobenzoyl)thio]acrylamide], the pest or weed control at 100 ppm in test [1] (setting [9]) stood at 0%; in test [4], 0%; in test [7] (read-out: % Control TLB) it was 90%; in test [8], 0%. Moreover, the pest or weed control at 50 ppm in test [2] (setting [10]) came to 50%. Also, in test [3], the pest or weed control at 200 ppm worked out at 75%. The MIC in test [5] is over 250 µg/mL. Further, in test [6] (Pyricularia oryzae, read-out: % Control RB, application rate 25 ppm), the pest or weed control at 25 ppm is 80%.
For `CCCCCCCCNC(=O)/C=C\SC(=O)c1cccnc1Cl` [Compound 6, N-octyl-cis-3-[3-(2-chloropyridine)carbonylthio]acrylamide], the pest or weed control at 100 ppm in test [1] (setting [9]) turned out to be 0%; in test [4] it was 0%; in test [6] (setting [11]) it was 50%; in test [7] (read-out: % Control TLB), 90%; in test [8], 0%. The pest or weed control at 50 ppm in test [2] (setting [10]) worked out at 85%. Moreover, the pest or weed control at 200 ppm in test [3] was 90%. The minimum inhibitory concentration (MIC) in test [5] was over 250 µg/mL.
For `CCCCCCCCNC(=O)/C=C\SC(=O)Cc1ccccc1` [Compound 12, N-octyl-cis-3-(phenylacetylthio)acrylamide], the pest or weed control at 100 ppm was found to be 0% in test [1] (setting [9]), 0% in test [4], 90% in test [7] (read-out: % Control TLB) and 0% in test [8]. In addition, in test [2] (setting [10]), the pest or weed control at 50 ppm is 85%. In addition, the pest or weed control at 200 ppm in test [3] and in test [6] (Pyricularia oryzae) was 90% in each case. In addition, the MIC in test [5] is over 250 µg/mL.
Take `CCCCCCCCNC(=O)/C=C\SC(=O)/C=C/c1ccccc1` [Compound 14, N-octyl-cis-3-[(trans-3-phenylprop-2-enoyl)thio]acrylamide]: the pest or weed control at 100 ppm in test [1] (setting [9]) turned out to be 0%; in test [4] it was 0%; in test [6] (setting [12]), 100%; in test [7] (read-out: % Control TLB) it was 90%; in test [8] it was 0%. For the same molecule, the pest or weed control at 50 ppm in test [2] (setting [10]) was 50%. Further, the pest or weed control at 200 ppm in test [3] was determined as 75%. Moreover, in test [5], the MIC is over 250 µg/mL.
For the molecule `CCCCCCCCNC(=O)/C=C\SC(=O)c1ccco1` [Compound 15, N-octyl-cis-3-(2-furoylthio)acrylamide], the pest or weed control at 100 ppm was found to be 95% in test [1] (setting [9]); 0% in test [4]; 100% in test [6] (setting [12]); 95% in test [7] (setting [13]); 0% in test [8]. Besides, the pest or weed control at 50 ppm in test [2] (setting [10]) worked out at 50%. For the same molecule, in test [3], the pest or weed control at 200 ppm is 90%. In test [5], the minimum inhibitory concentration (MIC) was over 250 µg/mL.
Regarding `CCCCCCCCNC(=O)/C=C\SC(=O)c1ccc(OC)cc1` [Compound 16, N-octyl-cis-3-[(4-methoxybenzoyl)thio]acrylamide], the pest or weed control at 100 ppm in test [1] (setting [9]) is 75%; in test [3], 75%; in test [4], 0%; in test [7] (read-out: % Control TLB), 90%; in test [8] it was 0%. Moreover, the pest or weed control at 12 ppm in test [2] (setting [10]) was 50%. In test [5], the MIC was over 250 µg/mL. The pest or weed control at 25 ppm in test [6] (setting [12]) was 100%.
On to `CCCCCCCCNC(=O)/C=C\SC(=O)c1ccc([N+](=O)[O-])cc1` [Compound 46, N-octyl-cis-3-[(4-nitrobenzoyl)thio]acrylamide], for which the pest or weed control at 25 ppm in test [1] (setting [9]) turned out to be 80%. In addition, in test [2] (setting [10]), the pest or weed control at 50 ppm came to 99%. In addition, the values for the pest or weed control at 200 ppm in test [3] and in test [6] (Pyricularia oryzae) were 100% and 75%, respectively. Moreover, the pest or weed control at 100 ppm in test [4] is 0%; in test [7] (setting [13]), 95%. The minimum inhibitory concentration (MIC) in test [5] was over 250 µg/mL.
Regarding `CCCCCCCCNC(=O)/C=C\SC(=O)C1CC1` [Compound 49, N-octyl-cis-3-(cyclopropanecarbonylthio)acrylamide], the pest or weed control at 50 ppm in test [2] (setting [10]) was found to be 99%. Also, in test [3], the pest or weed control at 200 ppm is 75%. In addition, the MIC in test [5] was over 250 µg/mL. Moreover, the pest or weed control at 12 ppm in test [6] (Pyricularia oryzae, read-out: % Control RB, application rate 12 ppm) worked out at 50%. Further, the pest or weed control at 100 ppm in test [7] (read-out: % Control TLB) was found to be 80%.
For `CCCCCCCCNC(=O)/C=C\SC(=O)c1sccc1C` [Compound 50, N-octyl-cis-3-[(3-methyl-2-thiophene)carbonylthio]acrylamide], the pest or weed control at 50 ppm in test [2] (setting [10]) was determined as 85%. The figures for the pest or weed control at 200 ppm in test [3] and in test [6] (Pyricularia oryzae) were 75% and 0%, respectively. Moreover, the minimal inhibitory concentration (MIC) in test [5] is over 250 µg/mL. Also, in test [7] (read-out: % Control TLB), the pest or weed control at 100 ppm was determined as 80%.
`CCCCCCCCNC(=O)/C=C\SC(=O)CC=Cc1ccccc1` [Compound 88, N-octyl-cis-3-[(4-phenylbut-3-enoyl)thio]acrylamide]: the pest or weed control at 50 ppm in test [1] (setting [9]) was 80%. In addition, the pest or weed control at 200 ppm turned out to be 70% in test [2] (setting [10]), 0% in test [4], 90% in test [6] (Pyricularia oryzae) and 90% in test [7] (read-out: % Control TLB). The pest or weed control at 100 ppm in test [3] is 0%. Moreover, the MIC in test [5] was over 250 µg/mL.
With `CCCCCCCCNC(=O)/C=C\SC(=O)c1ccc([N+](=O)[O-])c([N+](=O)[O-])c1` [Compound 112, N-octyl-cis-3-[(3,4-dinitrobenzoyl)thio]acrylamide], the pest or weed control at 200 ppm was 50% in test [1] (setting [9]), 99% in test [2] (setting [10]), 0% in test [4] and 0% in test [6] (Pyricularia oryzae). Moreover, the pest or weed control at 100 ppm was determined as 50% in test [3] and 90% in test [7] (read-out: % Control TLB). The MIC in test [5] was over 250 µg/mL.
`CC(C)(C)CC(C)(C)NC(=O)/C=C\SC(=O)c1ccccc1` [Compound 114]: the pest or weed control at 200 ppm in test [1] (setting [9]) came to 0%; in test [2] (setting [10]), 95%; in test [4] it was 0%; in test [6] (Pyricularia oryzae), 0%; in test [7] (read-out: % Control TLB), 90%. For the same molecule, the pest or weed control at 100 ppm in test [3] came to 50%. Also, the MIC in test [5] was over 250 µg/mL.
On to “N-octyl-cis-3-(ferrocenecarbonylthio)acrylamide [Compound 81]”, for which, in test [1] (in vivo), the “% Control WLR” value turned out to be 25 % Control. Also, the “% Control CDM” value in test [2] (in vivo) is listed as 0 % Control. Also, the “% Control WPM” value in test [4] (in vivo) was 85 % Control. Further, the “MIC Ps.fl” value in test [5] is on record as over 250 Ppm. The “% Control RB” value in test [6] (in vivo) stood at 75 % Control. In addition, in test [7] (in vivo), the “% Control TLB” value is given as 100 % Control. In addition, the “% Control RSB” value in test [8] (in vivo) stood at 0 % Control.
